Measured values taken from patent publication US20250312468A1, “ANTI-PROTAC ANTIBODIES AND COMPLEXES” (Merck Patent GmbH, priority 2021, published 2025).

Key:
CD33xMIC10 = experiment: SPR affinity of VHH clone (antibody fusion) to PROTACs; settings: CD33xMIC10 immobilized, 25° C., read-out: KD [M] for antibody binding to PROTAC
Protocol: (§1) The kinetic and affinity parameters of protein-PROTAC interactions were evaluated by SPR. The anti-PROTAC VHH clones MIC5-MIC14 were immobilized as CD33 or CLL1 antibody fusion (the manufacturing of fusion proteins and the used linker is described in chapter 7.9) onto a CM5 (Series S) sensor chip via the standard amine coupling procedure, at 25° C. Prior to immobilization, the carboxymethylated surface of the chip was activated with 400 mM 1-ethyl-3-(3-dimethylaminopropyl)-carbodiimide and 100 mM N-hydroxysuccinimide for 7 min. Hit anti-PROTAC VHH as CD33 and CLL1 antibody fusions were diluted to 10 μg/ml in 10 mM Acetate at pH 4.5 and immobilized on the activated surface chip for 7 min, in order to reach 3,000 to 6,000 response units (RU). The remaining activated carboxymethylated groups were blocked with a 10 min injection of 1 M ethanolamine pH 8. HBS-N, which consists of 10 mM HEPES pH 7.4 and 150 mM NaCl, was used as the background buffer during immobilization. PROTACs were prediluted in DMSO, diluted 1:50 in running buffer (12 mM phosphate pH 7.4, 137 mM NaCl, 2.7 mM KCl, 0.05% Tween20, 2% DMSO) and injected at ten different concentrations using two-fold dilution series, from 1 μM to 0.002 μM. A DMSO solvent correction (1%-3%) was performed to account for variations in bulk signal and to achieve high-quality data. Interaction analysis cycles consisted of a 300 sec sample injection (30 μL/min; association phase) followed by 900 sec of buffer flow (dissociation phase).
(§2) All sensorgrams were processed by first subtracting the binding response recorded from the control surface (reference flow-channel), followed by subtracting of the buffer blank injection from the active flow-channel (target protein immobilized). All datasets were fit to a simple 1:1 Langmuir interaction model to determine the kinetic rate constants. Experiments were performed on a Biacore 8k+ (Cytiva, Uppsala, Sweden) at 25° C. and the interactions were evaluated using the provided Biacore Insight Evaluation software.

CD33xMIC11 = experiment: as above; settings: CD33xMIC11 immobilized, 25° C., read-out: KD [M] for antibody binding to PROTAC
Protocol: as §1, §2

CD33xMIC12 = experiment: as above; settings: CD33xMIC12 immobilized, 25° C., read-out: KD [M] for antibody binding to PROTAC
Protocol: as §1, §2

CD33xMIC13 = experiment: as above; settings: CD33xMIC13 immobilized, 25° C., read-out: KD [M] for antibody binding to PROTAC
Protocol: as §1, §2

CD33xMIC14 = experiment: as above; settings: CD33xMIC14 immobilized, 25° C., read-out: KD [M] for antibody binding to PROTAC
Protocol: as §1, §2

CD33xMIC5 = experiment: as above; settings: CD33xMIC5 immobilized, 25° C., read-out: KD [M] for antibody binding to PROTAC
Protocol: as §1, §2

CD33xMIC6 = experiment: as above; settings: CD33xMIC6 immobilized, 25° C., read-out: KD [M] for antibody binding to PROTAC
Protocol: as §1, §2

CD33xMIC7 = experiment: as above; settings: CD33xMIC7 immobilized, 25° C., read-out: KD [M] for antibody binding to PROTAC
Protocol: as §1, §2

CD33xMIC8 = experiment: as above; settings: CD33xMIC8 immobilized, 25° C., read-out: KD [M] for antibody binding to PROTAC
Protocol: as §1, §2

CD33xMIC9 = experiment: as above; settings: CD33xMIC9 immobilized, 25° C., read-out: KD [M] for antibody binding to PROTAC
Protocol: as §1, §2

CLL1xMIC7 = experiment: as above; settings: CLL1xMIC7 immobilized, 25° C., read-out: KD [M] for antibody binding to PROTAC
Protocol: as §1, §2

A431 = experiment: CellTiter-Glo cell viability assay (VHH-based PAX); settings: A431, PROTAC alone
Protocol: (§3) Several cell viability experiments were performed following the procedure described below: Cells were seeded in different media into white cell culture-treated flat and clear bottom multiwell plates followed by overnight incubation in a humid chamber at 37° C. and 5% CO2. Complexation was performed as described in chapter 7.4.
(§4) The solutions were added to the cells based on the antibody concentration using nanodrop dispension using a Tecan D300e Digital Dispenser and all wells were normalized to the same volume using 0.3% TW20 in PBS pH 7.4 and DMSO to a final solvent concentration of 0.05% DMSO and 0.003% TW20. Incubation was performed at 37° C. at 5% or 10% CO2 dependent on the medium. The assay was developed after 3 days if not otherwise stated using CellTiter-Glo Luminescent Cell Viability Assay as described in the manufacturer's protocol. In brief, the plates were equilibrated to room temperature for 30 minutes. 100 mL CellTiter-Glo Buffer were added to the CellTiter-Glo Substrate Flask and mixed well. 30 μL of the reagent was transferred to each well. After incubation for 3 minutes at room temperature while shaking at 550 rpm, the plate was incubated for another 10 minutes at room temperature. The luminescence was read on an Envision reader from Perkin Elmer. Solvent alone and Bortezomib (1.0E-05 M) served as high control (100% viability) and low control (0% viability), respectively. Raw data were converted into percent cell viability relative to the high and low control, which were set to 100% and 0%, respectively. […] The concentration corresponds to the concentration of PROTACs in the PAX.

HCC827 = experiment: CellTiter-Glo cell viability assay (VHH-based PAX); settings: HCC827, PROTAC alone
Protocol: as §3, §4

HEPG2 cells = experiment: CellTiter-Glo cell viability assay (VHH-based PAX); settings: HEPG2, PROTAC alone
Protocol: as §3, §4

MCF7 = experiment: CellTiter-Glo cell viability assay (VHH-based PAX); settings: MCF7, PROTAC alone
Protocol: as §3, §4

MDAMB468 cells = experiment: CellTiter-Glo cell viability assay (VHH-based PAX); settings: MDAMB468, PROTAC alone
Protocol: as §3, §4

SKOV3 = experiment: CellTiter-Glo cell viability assay (VHH-based PAX); settings: SKOV3, PROTAC alone
Protocol: as §3, §4

Compound | Kd (CD33xMIC10) [M] | Kd (CD33xMIC11) [M] | Kd (CD33xMIC12) [M] | Kd (CD33xMIC13) [M] | Kd (CD33xMIC14) [M] | Kd (CD33xMIC5) [M] | Kd (CD33xMIC6) [M] | Kd (CD33xMIC7) [M] | Kd (CD33xMIC8) [M] | Kd (CD33xMIC9) [M] | Kd (CLL1xMIC7) [M] | IC50 (A431) [nM] | IC50 (HCC827) [nM] | IC50 (HEPG2 cells) [nM] | IC50 (MCF7) [nM] | IC50 (MDAMB468 cells) [nM] | IC50 (SKOV3) [nM]
Cc1ncsc1-c1ccc(CNC(=O)[C@@H]2C[C@@H](O)CN2C(=O)[C@@H](NC(=O)CCCCCCCCCCNC(=O)c2cc3c(cc2CS(C)(=O)=O)-c2cn(C)c(=O)c4[nH]cc(c24)CN3c2ncc(F)cc2F)C(C)(C)C)cc1 [GNE987] | 1.3e-08 | 2e-08 | 4.2e-08 | 2.3e-08 | 1e-08 | 9.6e-10 | 4.1e-08 | < 1e-10 | 6.5e-09 | 4.3e-08 | < 1e-10 | 0.34 | 0.77 | 2.6 | 0.15 | 0.41 | 0.61
Cc1ncsc1-c1ccc([C@H](C)NC(=O)[C@@H]2C[C@@H](O)CN2C(=O)[C@@H](NC(=O)COCCCOCCNC(=O)C[C@@H]2N=C(c3ccc(Cl)cc3)c3c(sc(C)c3C)-n3c(C)nnc32)C(C)(C)C)cc1 [ARV771] | 1.4e-07 | 3.7e-09 | 5.6e-09 | 1.3e-08 | 1.4e-07 | 2.7e-07 | 5.3e-08 | 4.2e-09 | 3.1e-08 | 4e-09 | 8.8e-09 | 65 | 91 | 89 | 26 | 49 | 32
